Source: paper PMC3262960 (ACS Chemical Biology, 2011)
Where two headings read alike, the source gives them in different places.

Columns and labels:
[1] = animal models of RA, UC, and neuron degeneration; cited from earlier work
PAD1 [2] = molecular target: T1, PAD1 (Homo sapiens, UniProt Q9ULC6); conditions: read-out: IC50 PAD1; first generation inhibitors; cited from earlier work
T1 sequence (Q9ULC6 1-663): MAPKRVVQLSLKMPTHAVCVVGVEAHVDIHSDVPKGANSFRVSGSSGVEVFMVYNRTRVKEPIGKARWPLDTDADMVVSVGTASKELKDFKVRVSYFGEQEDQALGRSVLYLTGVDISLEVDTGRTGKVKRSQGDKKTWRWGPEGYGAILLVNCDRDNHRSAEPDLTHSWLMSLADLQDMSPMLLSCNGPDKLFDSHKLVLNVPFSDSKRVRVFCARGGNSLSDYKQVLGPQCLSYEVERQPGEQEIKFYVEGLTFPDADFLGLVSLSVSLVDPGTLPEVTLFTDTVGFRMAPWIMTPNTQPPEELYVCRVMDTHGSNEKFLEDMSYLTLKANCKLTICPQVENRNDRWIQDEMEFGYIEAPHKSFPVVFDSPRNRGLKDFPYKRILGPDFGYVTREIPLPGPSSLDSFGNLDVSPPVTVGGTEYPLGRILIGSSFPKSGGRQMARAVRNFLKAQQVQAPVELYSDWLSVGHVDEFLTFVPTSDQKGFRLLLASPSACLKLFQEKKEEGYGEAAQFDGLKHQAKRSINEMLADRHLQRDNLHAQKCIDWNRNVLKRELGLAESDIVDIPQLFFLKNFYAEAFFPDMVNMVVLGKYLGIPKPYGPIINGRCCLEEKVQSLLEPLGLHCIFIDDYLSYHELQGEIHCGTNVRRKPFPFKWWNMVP

PAD3 [3] = molecular target: T2, PAD3 (Homo sapiens, UniProt Q9ULW8); conditions: read-out: IC50 PAD3; first generation inhibitors; cited from earlier work
T2 sequence (Q9ULW8 1-664): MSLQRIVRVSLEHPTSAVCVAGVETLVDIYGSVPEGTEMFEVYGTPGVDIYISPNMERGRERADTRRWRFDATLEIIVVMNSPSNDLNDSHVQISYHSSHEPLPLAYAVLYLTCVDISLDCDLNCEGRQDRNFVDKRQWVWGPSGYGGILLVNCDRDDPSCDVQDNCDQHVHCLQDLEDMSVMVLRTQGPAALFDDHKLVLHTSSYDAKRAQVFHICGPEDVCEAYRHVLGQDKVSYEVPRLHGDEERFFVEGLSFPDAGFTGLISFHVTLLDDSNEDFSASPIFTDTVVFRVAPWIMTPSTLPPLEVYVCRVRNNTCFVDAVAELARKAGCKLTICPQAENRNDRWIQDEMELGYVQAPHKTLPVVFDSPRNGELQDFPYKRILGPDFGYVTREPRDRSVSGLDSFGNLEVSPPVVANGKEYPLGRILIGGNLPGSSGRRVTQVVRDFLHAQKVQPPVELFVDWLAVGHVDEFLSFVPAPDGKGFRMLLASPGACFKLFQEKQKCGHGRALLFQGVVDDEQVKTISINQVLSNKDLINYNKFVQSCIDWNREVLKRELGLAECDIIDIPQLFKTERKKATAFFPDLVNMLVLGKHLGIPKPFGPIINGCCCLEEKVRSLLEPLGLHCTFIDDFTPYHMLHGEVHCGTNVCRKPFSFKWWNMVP

PAD4 [4] = molecular target: T3, PAD4 (Homo sapiens, UniProt Q9UM07); experiment: Dialysis of PAD4•inactivator complex; type: biochemical; conditions: excess inhibitor, 20 h of dialysis
T3 sequence (Q9UM07 whole entry): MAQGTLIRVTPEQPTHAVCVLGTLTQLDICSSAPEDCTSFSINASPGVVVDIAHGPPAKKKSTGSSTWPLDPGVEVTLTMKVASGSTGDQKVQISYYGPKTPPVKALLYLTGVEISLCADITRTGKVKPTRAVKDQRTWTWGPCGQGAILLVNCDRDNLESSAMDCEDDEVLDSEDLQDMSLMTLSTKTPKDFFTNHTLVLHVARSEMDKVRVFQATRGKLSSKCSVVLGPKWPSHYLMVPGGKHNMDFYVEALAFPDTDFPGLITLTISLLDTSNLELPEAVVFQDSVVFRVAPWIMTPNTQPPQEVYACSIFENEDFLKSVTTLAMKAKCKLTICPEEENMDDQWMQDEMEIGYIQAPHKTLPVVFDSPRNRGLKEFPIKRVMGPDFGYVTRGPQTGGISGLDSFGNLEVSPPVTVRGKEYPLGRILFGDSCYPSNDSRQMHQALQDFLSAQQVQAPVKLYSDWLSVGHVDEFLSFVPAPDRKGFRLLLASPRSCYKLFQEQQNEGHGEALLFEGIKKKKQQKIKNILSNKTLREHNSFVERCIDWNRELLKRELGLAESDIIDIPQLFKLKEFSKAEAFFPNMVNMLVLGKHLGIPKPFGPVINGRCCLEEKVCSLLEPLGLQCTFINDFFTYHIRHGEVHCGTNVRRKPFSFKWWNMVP

PAD3 [5] = molecular target: T2, PAD3; experiment: PAD3 inhibition, IC50 determination; type: biochemical; conditions: read-out: IC50 PAD3
PAD4 [6] = molecular target: T3, PAD4; experiment: Substrate protection experiments; type: biochemical; conditions: two different concentrations of substrate
PAD4 R639Q mutant = experiment: IC50 with PAD4 R639Q mutant; conditions: relative to wild type PAD4
PAD4 R374Q mutant = experiment: IC50 with PAD4 R374Q mutant; conditions: relative to wild type PAD4
PAD2 [7] = molecular target: T4, PAD2 (Homo sapiens, UniProt Q9Y2J8); experiment: PAD2 inhibition, IC50 determination; type: biochemical; conditions: read-out: IC50 PAD2
T4 sequence (Q9Y2J8 whole entry): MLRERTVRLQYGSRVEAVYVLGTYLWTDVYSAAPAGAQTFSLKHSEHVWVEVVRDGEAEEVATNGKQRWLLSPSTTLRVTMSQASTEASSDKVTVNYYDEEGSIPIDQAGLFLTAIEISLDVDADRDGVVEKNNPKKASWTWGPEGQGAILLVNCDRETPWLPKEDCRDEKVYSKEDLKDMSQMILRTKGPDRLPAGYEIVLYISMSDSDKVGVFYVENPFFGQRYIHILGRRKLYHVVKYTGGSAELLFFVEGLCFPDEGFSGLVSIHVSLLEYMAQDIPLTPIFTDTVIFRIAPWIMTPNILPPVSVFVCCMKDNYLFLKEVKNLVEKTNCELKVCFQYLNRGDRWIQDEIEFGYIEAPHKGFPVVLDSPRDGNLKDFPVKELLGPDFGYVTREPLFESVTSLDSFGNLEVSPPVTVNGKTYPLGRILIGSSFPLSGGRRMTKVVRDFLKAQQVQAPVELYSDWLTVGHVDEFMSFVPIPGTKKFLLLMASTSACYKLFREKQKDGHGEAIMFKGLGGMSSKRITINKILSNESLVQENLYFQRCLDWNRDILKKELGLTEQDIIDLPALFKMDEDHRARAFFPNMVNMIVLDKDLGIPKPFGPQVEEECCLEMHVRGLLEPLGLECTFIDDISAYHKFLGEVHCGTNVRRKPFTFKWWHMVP

PAD1 [8] = molecular target: T1, PAD1; experiment: PAD1 inhibition, IC50 determination; type: biochemical; conditions: read-out: IC50 PAD1
PAD4 Q346A mutant = experiment: IC50 with PAD4 Q346A mutant; conditions: relative to wild type PAD4
PAD4 [9] = molecular target: T3, PAD4; experiment: PAD4 inhibition, IC50 determination
PAD1 [10] = molecular target: T1, PAD1; experiment: Substrate activity with PAD1
PAD4 [11] = molecular target: T3, PAD4; experiment: Substrate activity with PAD4
PAD2 [12] = molecular target: T4, PAD2; experiment: Substrate activity with PAD2
PAD3 [13] = molecular target: T2, PAD3; experiment: Substrate activity with PAD3

N=C(CCl)NCCC[C@H](NC(=O)c1ccccc1)C(N)=O [Cl-amidine, N-alpha-benzoyl-N5-(2-chloro-1-iminoethyl)-L-ornithine amide]
effect on disease severity in animal models [1]: reduces disease severity

NC(=O)[C@H](CCCN=C(N)CF)NC(=O)c1ccccc1 [F-amidine]
IC50 (PAD1 [2]): 30 ± 1.3 µM
IC50 (PAD3 [3]): ≥ 350 µM

CC(=O)N[C@H](C(=O)N[C@@H](CC(=O)O)C(=O)N[C@@H](CCCN=C(N)CF)C(N)=O)[C@@H](C)O [TDFA, Thr-Asp-F-amidine]
recovery of PAD4 activity after dialysis (PAD4 [4]): no recovery of activity
IC50 (PAD3 [5]): 26 ± 7.4 µM
rates of inactivation at the higher concentration of substrate (PAD4 [6]): considerably lower
increase of IC50 with R639Q mutant (PAD4 R639Q mutant): 2.9 fold
increase of IC50 with R374Q mutant (PAD4 R374Q mutant): 5.2 fold
IC50 (PAD2 [7]): 71 ± 4.4 µM
IC50 (PAD1 [8]): 8.5 ± 0.8 µM
increase of IC50 with Q346A mutant (PAD4 Q346A mutant): 1.9 fold
selectivity for PAD4 relative to the other PADs, based on IC50 values (PAD4 [9]): ≥ 4 fold
enhancement in potency relative to F-amidine (IC50) (PAD4 [9]; PAD4): ~ 10 fold
IC50 (PAD4 [9]; read-out: IC50 PAD4): 2.3 ± 0.2 µM

Ac-Threonine-Aspartate-Arginine-NH2 [Ac-TDR-NH2]
substrate quality for PAD1 (PAD1 [10]): excellent substrate
substrate quality for PAD4 (PAD4 [11]): excellent substrate
substrate quality for PAD2 (PAD2 [12]): relatively poor
substrate quality for PAD3 (PAD3 [13]): relatively poor
